The record followed here is ChEMBL document CHEMBL1201862, “PubChem BioAssay data set” (2004).

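Briefly, cells in 96-well plates were exposed to five compound concentrations for 48 h, and endpoints were estimated by linear interpolation. GI50 is the concentration that inhibits growth by half.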 Activity calls are given as the source filed them. No stated cut-off is given here; in the data, active = GI50 up to about 1.1 µM and inactive = higher.

Holding throughout (test): NCI-60 cell line screen, 48 h
For experiment [1], the system named is SF-295.
Experiment [2] concerns DU-145.
Experiment [3] has as its system UO-31.
The test system of experiment [4] is CAKI-1.
In experiment [5] the test system is HCT-15.
Experiment [6] has as its system OVCAR-5.
Experiment [7] has as its system CCRF-CEM.
The test system of experiment [8] is MCF7.
Experiment [9] relates to SF-268.
In experiment [10] the test system is ACHN.
The test system of experiment [11] is UACC-62.
Experiment [12] relates to OVCAR-3.
Experiment [13] has as its system NCI-H226.
Experiment [14] deals with U-251.
The test system of experiment [15] is TK-10.
The test system of experiment [16] is HL-60.
In experiment [17] the test system is SN12C.
Experiment [18] concerns UACC-257.
Experiment [19] deals with OVCAR-4.
Experiment [20] concerns Malme-3M.

Turning to `Cc1ccc(S(=O)(=O)[N-]C2C(=O)c3ccccc3C(=O)C2[n+]2cccc(C(N)=O)c2)cc1` (configuration not stated), the GI50 is > 100 µM (inactive) in experiment [1]; 40.6 µM (inactive) in [2]; > 100 µM (inactive) in experiment [3]; 40.9 µM (inactive) in experiment [4]; more than 100 µM in experiment [5]; > 100 µM (inactive) in experiment [6]. The GI50 in experiment [7], in experiment [8], in experiment [9], in experiment [10], in experiment [11] and in experiment [12] was > 100 µM (inactive) in each case. The GI50 is > 100 µM (inactive) in experiment [13]; > 100 µM (inactive) in [14]; 33.9 µM (inactive) in experiment [15]; > 100 µM (inactive) in experiment [16]; 30.3 µM (inactive) in experiment [17]; > 100 µM (inactive) in experiment [18]. In addition, the GI50 in experiment [19] is 26.9 µM (inactive).

`CCOC(=O)CCC(NC(=O)c1ccc(CNc2nc3cc(N)cc(N)c3nc2-c2ccccc2)cc1)C(=O)OCC` (configuration not stated): the GI50 in experiment [1] is > 100 µM (inactive); in experiment [2], > 89.3 µM (inactive); in [3], > 100 µM (inactive); in experiment [4], > 100 µM (inactive); in experiment [5] it was more than 69.5 µM; in experiment [6], > 100 µM (inactive). In addition, the GI50 in experiment [20] is 18.3 µM (inactive); in experiment [8] it was > 87.3 µM (inactive); in experiment [9], > 100 µM (inactive); in experiment [10] it was > 100 µM (inactive); in experiment [11] it was > 86.3 µM (inactive); in experiment [12], 27 µM (inactive). For the same compound, the GI50 was > 100 µM (inactive) in experiment [13]; > 100 µM (inactive) in [14]; > 100 µM (inactive) in experiment [15]; 10.7 µM (inactive) in experiment [16]; > 61.5 µM (inactive) in experiment [17]; 19 µM (inactive) in experiment [18]. Moreover, the GI50 in experiment [19] was 17.4 µM (inactive).

In the case of `CCn1c(-c2cc(OC)cc(OC)c2)nc2c1C(=O)c1ccccc1C2=O`, the GI50 is 29.2 µM (inactive) in [1]; > 100 µM (inactive) in experiment [2]; more than 100 µM in experiment [5]; > 100 µM (inactive) in [6]; > 100 µM (inactive) in [7]; > 100 µM (inactive) in [20]. Also, the GI50 in experiment [8] is > 100 µM (inactive); in [9], 65.8 µM (inactive); in [10] it was > 100 µM (inactive); in experiment [11], 20.6 µM (inactive); in experiment [12], > 100 µM (inactive); in experiment [13] it was > 100 µM (inactive). The GI50 in experiment [14], in [15], in experiment [16], in [17], in [18] and in [19] was > 100 µM (inactive) throughout.

In the case of `C=CCNc1nc2c(s1)C(=O)c1ccccc1C2=O`, the GI50 in experiment [1] is 14.8 µM (inactive); in [2] it was 18.6 µM (inactive); in experiment [3] it was 13.3 µM (inactive); in experiment [4], 13.7 µM (inactive); in experiment [5], 8.51 µM; in [6] it was 21.7 µM (inactive). The GI50 in experiment [20] is 12.5 µM (inactive); in [8], 6.25 µM (inactive); in experiment [9] it was 12.4 µM (inactive); in experiment [10], 7.62 µM (inactive); in experiment [11], 3.9 µM (inactive); in experiment [12], 12.1 µM (inactive). Also, the GI50 in [13] is 21.2 µM (inactive); in [14] it was 7.55 µM (inactive); in experiment [15] it was 19.2 µM (inactive); in experiment [16] it was 1.61 µM (inactive); in [17] it was 11.6 µM (inactive); in experiment [18], 2.7 µM (inactive). Also, in experiment [19], the GI50 is 7.87 µM (inactive).

For the compound `O=C(Cn1c(C(=O)/C=C/c2ccco2)nc2ccccc21)c1ccc(Cl)cc1`, the GI50 in experiment [2] is 36.1 µM (inactive); in [3] it was 23.2 µM (inactive); in experiment [5] it was 20.6 µM; in experiment [6], > 100 µM (inactive); in experiment [7], 3.58 µM (inactive); in experiment [20], 3.06 µM (inactive). In addition, the GI50 was 19.9 µM (inactive) in experiment [8]; 9.71 µM (inactive) in experiment [9]; 26.2 µM (inactive) in experiment [10]; 22.8 µM (inactive) in experiment [11]; 31.5 µM (inactive) in experiment [12]; 52.7 µM (inactive) in [13]. Besides, the GI50 in experiment [14] is 23.8 µM (inactive); in experiment [15], 25.1 µM (inactive); in experiment [16], 15.5 µM (inactive); in experiment [17] it was 15.2 µM (inactive); in [18], 14.5 µM (inactive); in [19], 14.4 µM (inactive).

For `O=c1oc2cc(O)ccc2c(O)c1C(c1ccccc1F)c1c(O)c2ccc(O)cc2oc1=O`, the GI50 in [1] is > 100 µM (inactive); in [2], > 100 µM (inactive); in [3], > 100 µM (inactive); in experiment [4] it was > 100 µM (inactive); in experiment [5], 31 µM; in experiment [6] it was > 100 µM (inactive). The GI50 in experiment [8] was 45.2 µM (inactive); in experiment [9] it was 78.2 µM (inactive); in experiment [10], > 100 µM (inactive); in [11] it was 36.6 µM (inactive); in experiment [12], > 100 µM (inactive); in experiment [13] it was > 100 µM (inactive). Moreover, the GI50 in [14] is 42.3 µM (inactive); in experiment [15], > 100 µM (inactive); in experiment [16] it was 17.9 µM (inactive); in experiment [17] it was > 100 µM (inactive); in [18] it was > 100 µM (inactive).

For the compound `O=C1C[C@@]23CCC4(CC2=CCC[C@H]3O1)OCCO4`, the GI50 in experiment [1] is > 100 µM (inactive); in experiment [2], > 100 µM (inactive); in experiment [4], > 100 µM (inactive); in experiment [5], more than 100 µM; in experiment [6], > 100 µM (inactive); in experiment [20] it was > 100 µM (inactive). The GI50 in experiment [8], in [9], in experiment [10], in experiment [11], in experiment [12] and in [13] was > 100 µM (inactive) each time. Also, the GI50 in experiment [14], in experiment [15], in [16], in experiment [17], in experiment [18] and in experiment [19] was > 100 µM (inactive) throughout.

Regarding `C(=N\OCCc1ccccc1)/c1cccnc1`, the GI50 in [1] is > 100 µM (inactive); in experiment [2], > 100 µM (inactive); in experiment [3], > 100 µM (inactive); in [5], more than 100 µM; in experiment [6] it was > 100 µM (inactive); in experiment [7], > 100 µM (inactive). Besides, the GI50 in [20], in [8], in [9], in [10], in [11] and in experiment [12] was > 100 µM (inactive) throughout. The GI50 in experiment [13] was > 100 µM (inactive); in experiment [14], > 100 µM (inactive); in experiment [15], > 100 µM (inactive); in [16] it was 5.02 µM (inactive); in experiment [17], > 100 µM (inactive); in experiment [18], > 100 µM (inactive). In experiment [19], the GI50 is > 100 µM (inactive).
